ChEMBL document CHEMBL1201861, “Genomics of Drug Sensitity in Cancer screening data, Wellcome Trust Sanger Institute”

What was measured:
Test in all cases: cells
EGI-1 = format: functional, cell-based, Homo sapiens; settings: Homo sapiens, EGI-1;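 note: cell viability readout used to gauge growth inhibition of EGI-1 cells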
Description: SANGER: Inhibition of human EGI-1 cell growth in a cell viability assay.

no-10 = format: functional, cell-based, Homo sapiens; settings: Homo sapiens;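 note: growth inhibition of no-10 cells, read out with a cell viability assay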
Description: SANGER: Inhibition of human no-10 cell growth in a cell viability assay.

A-375 = format: functional, cell-based, Homo sapiens; settings: Homo sapiens, A-375;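 note: growth inhibition of A375 cells, read out with a cell viability assay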
Description: SANGER: Inhibition of human A375 cell growth in a cell viability assay.

SK-MES-1 = format: functional, cell-based, Homo sapiens; settings: Homo sapiens, SK-MES-1;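 note: growth inhibition of human SK-MES-1 cells, read out with a cell viability assay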
Description: SANGER: Inhibition of human SK-MES-1 cell growth in a cell viability assay.

786-0 = format: functional, cell-based, Homo sapiens; settings: Homo sapiens
Description: SANGER: Inhibition of human 786-0 cell growth in a cell viability assay.

LAMA-84 = format: functional, cell-based; settings: Homo sapiens;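 note: growth inhibition of LAMA-84 cells, read out with a cell viability assay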
Description: SANGER: Inhibition of human LAMA-84 cell growth in a cell viability assay.

MZ2-MEL = format: functional, cell-based, Homo sapiens; settings: Homo sapiens, MZ2-MEL;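 note: growth inhibition of MZ2-MEL cells read out with a cell viability assay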
Description: SANGER: Inhibition of human MZ2-MEL cell growth in a cell viability assay.

NCI-H358 = format: functional, cell-based, Homo sapiens; settings: Homo sapiens, NCI-H358;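 note: growth inhibition of NCI-H358 human cells, read out with a cell viability assay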
Description: SANGER: Inhibition of human NCI-H358 cell growth in a cell viability assay.

MHH-NB-11 = format: functional, cell-based, Homo sapiens; settings: Homo sapiens, MHH-NB-11;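 note: growth inhibition of human MHH-NB-11 cells, read out by a cell viability assay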
Description: SANGER: Inhibition of human MHH-NB-11 cell growth in a cell viability assay.

LOX IMVI = format: functional, cell-based; settings: Homo sapiens
Description: SANGER: Inhibition of human LOXIMVI cell growth in a cell viability assay.

NCI-H1993 = format: functional, cell-based, Homo sapiens; settings: Homo sapiens, NCI-H1993;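 note: growth inhibition of the cancer cell line, assessed with a cell viability assay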
Description: SANGER: Inhibition of human NCI-H1993 cell growth in a cell viability assay.

CAL-27 = format: functional, cell-based, Homo sapiens; settings: Homo sapiens, CAL-27;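 note: Viability-based readout, IC50 reflecting inhibition of CAL-27 cell growth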
Description: SANGER: Inhibition of human CAL-27 cell growth in a cell viability assay.

TE-8 = format: functional, cell-based, Homo sapiens; settings: Homo sapiens, TE-8;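 note: growth inhibition of TE-8 cells, measured with a cell viability readout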
Description: SANGER: Inhibition of human TE-8 cell growth in a cell viability assay.

GOTO = format: functional, cell-based, Homo sapiens; settings: Homo sapiens, GOTO;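 note: growth inhibition of GOTO cells, read out by a cell viability assay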
Description: SANGER: Inhibition of human GOTO cell growth in a cell viability assay.

TE-11 = format: functional, cell-based, Homo sapiens; settings: Homo sapiens, TE-11;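 note: growth inhibition of human TE-11 cells, read out by a cell viability assay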
Description: SANGER: Inhibition of human TE-11 cell growth in a cell viability assay.

SW 962 = format: functional, cell-based, Homo sapiens; settings: Homo sapiens, SW 962;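 note: growth inhibition of human SW962 cells, read out by a cell viability assay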
Description: SANGER: Inhibition of human SW962 cell growth in a cell viability assay.

SW1783 = format: functional, cell-based; settings: Homo sapiens;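 note: cell growth inhibition measured with a viability assay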
Description: SANGER: Inhibition of human SW1783 cell growth in a cell viability assay.

TE-1 = format: functional, cell-based, Homo sapiens; settings: Homo sapiens, TE-1
Description: SANGER: Inhibition of human TE-1 cell growth in a cell viability assay.

UMUC3 = format: functional, cell-based, Homo sapiens; settings: Homo sapiens, UMUC3;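 note: growth inhibition of human UM-UC-3 cells, read out with a cell viability assay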
Description: SANGER: Inhibition of human UM-UC-3 cell growth in a cell viability assay.

COLO-829 = format: functional, cell-based, Homo sapiens; settings: Homo sapiens, COLO-829
Description: SANGER: Inhibition of human COLO-829 cell growth in a cell viability assay.

Calu-3 = format: functional, cell-based, Homo sapiens; settings: Homo sapiens, Calu-3;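 note: growth inhibition of human Calu-3 cells, determined with a cell viability assay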
Description: SANGER: Inhibition of human Calu-3 cell growth in a cell viability assay.

BFTC-905 = format: functional, cell-based, Homo sapiens; settings: Homo sapiens, BFTC-905
Description: SANGER: Inhibition of human BFTC-905 cell growth in a cell viability assay.

T98G = format: functional, cell-based, Homo sapiens; settings: Homo sapiens, T98G;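 note: growth inhibition of T98G cells, read out by a cell viability assay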
Description: SANGER: Inhibition of human T98G cell growth in a cell viability assay.

HH = format: functional, cell-based; settings: Homo sapiens
Description: SANGER: Inhibition of human HH cell growth in a cell viability assay.

D-247MG = format: functional, cell-based, Homo sapiens; settings: Homo sapiens, D-247MG
Description: SANGER: Inhibition of human D-247MG cell growth in a cell viability assay.

NCI-H1693 = format: functional, cell-based, Homo sapiens; settings: Homo sapiens, NCI-H1693;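 note: growth inhibition of the human cell line, read out with a cell viability assay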
Description: SANGER: Inhibition of human NCI-H1693 cell growth in a cell viability assay.

A704 = format: functional, cell-based, Homo sapiens; settings: Homo sapiens, A704;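 note: growth inhibition of human A704 cells, read out with a cell viability assay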
Description: SANGER: Inhibition of human A704 cell growth in a cell viability assay.

BB65-RCC = format: functional, cell-based, Homo sapiens; settings: Homo sapiens, BB65-RCC;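 note: growth inhibition of the cell line, measured with a cell viability assay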
Description: SANGER: Inhibition of human BB65-RCC cell growth in a cell viability assay.

SH-4 = format: functional, cell-based, Homo sapiens; settings: Homo sapiens, SH-4;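 note: growth inhibition of SH-4 cells, read out with a cell viability assay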
Description: SANGER: Inhibition of human SH-4 cell growth in a cell viability assay.

MKN-1 = format: functional, cell-based, Homo sapiens; settings: Homo sapiens, MKN-1;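 note: growth inhibition of human MKN1 cells, read out by a cell viability measurement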
Description: SANGER: Inhibition of human MKN1 cell growth in a cell viability assay.

KLE = format: functional, cell-based, Homo sapiens; settings: Homo sapiens, KLE;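 note: growth inhibition of human KLE cells, read out with a cell viability assay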
Description: SANGER: Inhibition of human KLE cell growth in a cell viability assay.

ASPC1 = format: functional, cell-based, Homo sapiens; settings: Homo sapiens, ASPC1;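 note: growth inhibition of AsPC-1 cells, read out with a cell viability assay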
Description: SANGER: Inhibition of human AsPC-1 cell growth in a cell viability assay.

T-24 = format: functional, cell-based, Homo sapiens; settings: Homo sapiens, T-24;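 note: growth inhibition of T-24 cells, read out with a cell viability assay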
Description: SANGER: Inhibition of human T-24 cell growth in a cell viability assay.

D283 Med = format: functional, cell-based, Homo sapiens; settings: Homo sapiens, D283 Med
Description: SANGER: Inhibition of human D-283MED cell growth in a cell viability assay.

HT-29 = format: functional, cell-based, Homo sapiens; settings: Homo sapiens, HT-29;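 note: growth inhibition of human HT-29 cells, read out by a cell viability assay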
Description: SANGER: Inhibition of human HT-29 cell growth in a cell viability assay.

NCI-H2405 = format: functional, cell-based, Homo sapiens; settings: Homo sapiens, NCI-H2405;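 note: growth inhibition of the human cell line, read out with a cell viability assay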
Description: SANGER: Inhibition of human NCI-H2405 cell growth in a cell viability assay.

BEN = format: functional, cell-based, Homo sapiens; settings: Homo sapiens, BEN;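 note: growth inhibition of the BEN cell line, read out with a cell viability assay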
Description: SANGER: Inhibition of human BEN cell growth in a cell viability assay.

KP-N-YS = format: functional, cell-based; settings: Homo sapiens;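 note: cell viability assay measuring inhibition of cell line growth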
Description: SANGER: Inhibition of human KP-N-YS cell growth in a cell viability assay.

HuP-T3 = format: functional, cell-based, Homo sapiens; settings: Homo sapiens, HuP-T3;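 note: HuP-T3 cell growth inhibition, read out with a cell viability assay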
Description: SANGER: Inhibition of human HuP-T3 cell growth in a cell viability assay.

CHL-1 = format: functional, cell-based, Homo sapiens; settings: Homo sapiens, CHL-1;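 note: cell growth inhibition, read out with a cell viability assay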
Description: SANGER: Inhibition of human CHL-1 cell growth in a cell viability assay.

MPP-89 = format: functional, cell-based, Homo sapiens; settings: Homo sapiens, MPP-89;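 note: growth inhibition of human MPP-89 cells, read out with a cell viability assay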
Description: SANGER: Inhibition of human MPP-89 cell growth in a cell viability assay.

Calu-6 = format: functional, cell-based, Homo sapiens; settings: Homo sapiens, Calu-6;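 note: growth of human Calu-6 cells, read out by a cell viability assay, IC50 marking inhibition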
Description: SANGER: Inhibition of human Calu-6 cell growth in a cell viability assay.

G-402 = format: functional, cell-based, Homo sapiens; settings: Homo sapiens, G-402
Description: SANGER: Inhibition of human G-402 cell growth in a cell viability assay.

CAL-12T = format: functional, cell-based, Homo sapiens; settings: Homo sapiens, CAL-12T;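 note: growth inhibition of human CAL-12T cells, read out with a cell viability assay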
Description: SANGER: Inhibition of human CAL-12T cell growth in a cell viability assay.

697 = format: functional, cell-based; settings: Homo sapiens
Description: SANGER: Inhibition of human 697 cell growth in a cell viability assay.

SK-MEL-2 = format: functional, cell-based, Homo sapiens; settings: Homo sapiens, SK-MEL-2;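 note: growth inhibition of human SK-MEL-2 cells measured with a cell viability assay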
Description: SANGER: Inhibition of human SK-MEL-2 cell growth in a cell viability assay.

LS-1034 = format: functional, cell-based, Homo sapiens; settings: Homo sapiens, LS-1034
Description: SANGER: Inhibition of human LS-1034 cell growth in a cell viability assay.

NCI-H292 = format: functional, cell-based, Homo sapiens; settings: Homo sapiens, NCI-H292;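 note: growth inhibition of NCI-H292 cells, read out with a cell viability assay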
Description: SANGER: Inhibition of human NCI-H292 cell growth in a cell viability assay.

EOL1 = format: functional, cell-based; settings: Homo sapiens;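 note: growth inhibition of EoL-1 cells, read out by a cell viability assay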
Description: SANGER: Inhibition of human EoL-1-cell cell growth in a cell viability assay.

HCC2218 = format: functional, cell-based; settings: Homo sapiens;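 note: cell viability assay read-out, with IC50 given as the concentration that inhibits growth of the cell line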
Description: SANGER: Inhibition of human HCC2218 cell growth in a cell viability assay.

`CN(Cc1cnc2nc(N)nc(N)c2n1)c1ccc(C(=O)N[C@@H](CCC(=O)O)C(=O)O)cc1` [METHOTREXATE] was tested, and the IC50 (EGI-1) was greater than 0.2 µM, the IC50 (no-10) was greater than 0.2 µM and the IC50 (A-375) was greater than 0.2 µM. The IC50 (SK-MES-1) was greater than 0.2 µM, the IC50 (786-0) was greater than 0.2 µM and the IC50 (LAMA-84) was 0.0124 µM. The IC50 (MZ2-MEL) was greater than 0.2 µM, the IC50 (NCI-H358) was greater than 0.2 µM and the IC50 (MHH-NB-11) was greater than 0.2 µM. It also gave an IC50 (LOX IMVI) greater than 0.2 µM, an IC50 (NCI-H1993) greater than 0.2 µM and an IC50 (CAL-27) greater than 0.2 µM. The IC50 (TE-8) was greater than 0.2 µM, the IC50 (GOTO) was greater than 0.2 µM and the IC50 (TE-11) was greater than 0.2 µM. It also gave an IC50 (SW 962) greater than 0.2 µM, an IC50 (SW1783) greater than 0.2 µM and an IC50 (TE-1) greater than 0.2 µM. For the same molecule, the IC50 (UMUC3) was greater than 0.2 µM, the IC50 (COLO-829) was greater than 0.2 µM and the IC50 (Calu-3) was greater than 0.2 µM. The IC50 (BFTC-905) was greater than 0.2 µM, the IC50 (T98G) was greater than 0.2 µM and the IC50 (HH) was 0.0316 µM. It also gave an IC50 (D-247MG) greater than 0.2 µM, an IC50 (NCI-H1693) greater than 0.2 µM and an IC50 (A704) greater than 0.2 µM. For the same molecule, the IC50 (BB65-RCC) was greater than 0.2 µM, the IC50 (SH-4) was greater than 0.2 µM and the IC50 (MKN-1) was greater than 0.2 µM. The IC50 (KLE) was greater than 0.2 µM, the IC50 (ASPC1) was greater than 0.2 µM and the IC50 (T-24) was greater than 0.2 µM. For the same molecule, the IC50 (D283 Med) was greater than 0.2 µM, the IC50 (HT-29) was 0.153 µM and the IC50 (NCI-H2405) was greater than 0.2 µM. It also gave an IC50 (BEN) greater than 0.2 µM, an IC50 (KP-N-YS) greater than 0.2 µM and an IC50 (HuP-T3) greater than 0.2 µM. It also gave an IC50 (CHL-1) greater than 0.2 µM, an IC50 (MPP-89) greater than 0.2 µM and an IC50 (Calu-6) greater than 0.2 µM. It also gave an IC50 (G-402) greater than 0.2 µM, an IC50 (CAL-12T) greater than 0.2 µM and an IC50 697 of 0.0126 µM. For the same molecule, the IC50 (SK-MEL-2) was greater than 0.2 µM, the IC50 (LS-1034) was greater than 0.2 µM and the IC50 (NCI-H292) was greater than 0.2 µM.
With `O=C(c1cc(Cc2n[nH]c(=O)c3ccccc23)ccc1F)N1CCN(C(=O)C2CC2)CC1` [OLAPARIB] the IC50 (EGI-1) was greater than 5 µM, the IC50 (no-10) was greater than 5 µM and the IC50 (A-375) was greater than 5 µM. The IC50 (SK-MES-1) was greater than 5 µM, the IC50 (786-0) was greater than 5 µM and the IC50 (LAMA-84) was greater than 5 µM. It also gave an IC50 (MZ2-MEL) greater than 5 µM, an IC50 (NCI-H358) greater than 5 µM and an IC50 (MHH-NB-11) greater than 5 µM. For the same molecule, the IC50 (LOX IMVI) was greater than 5 µM, the IC50 (NCI-H1993) was greater than 5 µM and the IC50 (CAL-27) was greater than 5 µM. For the same molecule, the IC50 (TE-8) was greater than 5 µM, the IC50 (GOTO) was greater than 5 µM and the IC50 (TE-11) was greater than 5 µM. For the same molecule, the IC50 (SW 962) was greater than 5 µM, the IC50 (SW1783) was greater than 5 µM and the IC50 (TE-1) was greater than 5 µM. It also gave an IC50 (UMUC3) greater than 5 µM, an IC50 (COLO-829) greater than 5 µM and an IC50 (Calu-3) greater than 5 µM. It also gave an IC50 (BFTC-905) greater than 5 µM, an IC50 (T98G) greater than 5 µM and an IC50 (HH) greater than 5 µM. It also gave an IC50 (D-247MG) greater than 5 µM, an IC50 (NCI-H1693) greater than 5 µM and an IC50 (A704) greater than 5 µM. It also gave an IC50 (BB65-RCC) greater than 5 µM, an IC50 (SH-4) greater than 5 µM and an IC50 (EOL1) of 0.564 µM. For the same molecule, the IC50 (MKN-1) was greater than 5 µM, the IC50 (KLE) was greater than 5 µM and the IC50 (ASPC1) was greater than 5 µM. For the same molecule, the IC50 (T-24) was greater than 5 µM, the IC50 (D283 Med) was greater than 5 µM and the IC50 (HT-29) was greater than 5 µM. The IC50 (NCI-H2405) was greater than 5 µM, the IC50 (HCC2218) was 3.73 µM and the IC50 (BEN) was greater than 5 µM. It also gave an IC50 (KP-N-YS) greater than 5 µM, an IC50 (HuP-T3) greater than 5 µM and an IC50 (CHL-1) greater than 5 µM. The IC50 (MPP-89) was greater than 5 µM, the IC50 (Calu-6) was greater than 5 µM and the IC50 (G-402) was greater than 5 µM. The IC50 (CAL-12T) was greater than 5 µM, the IC50 697 was 2.84 µM and the IC50 (SK-MEL-2) was greater than 5 µM. For the same molecule, the IC50 (LS-1034) was greater than 5 µM and the IC50 (NCI-H292) was greater than 5 µM.
